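All cell lines were grown in 96-well plates and treated with compound for 48 hours. GI50 is the concentration that inhibits growth by half.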 The source made the active and inactive calls. Cut-off read from the data, not from the text of the source: active = GI50 up to about 1.1 µM and inactive = higher.
Columns and labels:
Assay in all cases: DTP human tumour cell line panel, 48 h
UO-31 = test system: UO-31
786-0 = test system: 786-0
DU-145 = test system: DU-145
SW-620 = test system: SW-620
NCI/ADR-RES = test system: NCI/ADR-RES
T47D = test system: T47D
HOP-92 = test system: HOP-92
HCC 2998 = test system: HCC 2998
SF-539 = test system: SF-539
K562 = test system: K562
HCT-15 = test system: HCT-15
MDA-MB-231 = test system: MDA-MB-231
PC-3 = test system: PC-3
CAKI-1 = test system: CAKI-1
OVCAR-3 = test system: OVCAR-3
SNB-75 = test system: SNB-75
OVCAR-5 = test system: OVCAR-5
SF-268 = test system: SF-268
MCF7 = test system: MCF7
BT-549 = test system: BT-549

SMILES: Cc1cc(O)cc(O)c1C(=O)O[C@]1(C)C(=O)C=C2C=C(/C=C/C(=O)O)OC=C2C1=O
- GI50 (UO-31): > 100 µM (inactive)
- GI50 (786-0): > 100 µM (inactive)
- GI50 (DU-145): > 100 µM (inactive)
- GI50 (SW-620): 58.3 µM (inactive)
- GI50 (NCI/ADR-RES): > 100 µM (inactive)
- GI50 (T47D): > 100 µM (inactive)
- GI50 (HOP-92): 31.8 µM (inactive)
- GI50 (HCC 2998): > 100 µM (inactive)
- GI50 (SF-539): > 100 µM (inactive)
- GI50 (K562): > 100 µM (inactive)
- GI50 (HCT-15): > 100 µM
- GI50 (MDA-MB-231): > 100 µM (inactive)
- GI50 (PC-3): > 100 µM (inactive)
- GI50 (CAKI-1): > 100 µM (inactive)
- GI50 (OVCAR-3): > 100 µM (inactive)
- GI50 (SNB-75): 0.76 µM (active)
- GI50 (OVCAR-5): > 100 µM (inactive)
- GI50 (SF-268): > 100 µM (inactive)
- GI50 (MCF7): 47.8 µM (inactive)

SMILES: O=C(CSc1nc2ccc(I)cc2c(=O)n1Cc1ccccc1)NN1C(=O)CCC1=O
- GI50 (786-0): 52.7 µM (inactive)
- GI50 (DU-145): > 100 µM (inactive)
- GI50 (SW-620): 75.2 µM (inactive)
- GI50 (NCI/ADR-RES): 37.2 µM (inactive)
- GI50 (T47D): 40 µM (inactive)
- GI50 (HOP-92): 25.5 µM (inactive)
- GI50 (HCC 2998): 77.4 µM (inactive)
- GI50 (SF-539): 61.4 µM (inactive)
- GI50 (K562): 33.3 µM (inactive)
- GI50 (HCT-15): 22.5 µM
- GI50 (MDA-MB-231): 32.4 µM (inactive)
- GI50 (PC-3): 30.1 µM (inactive)
- GI50 (CAKI-1): 1.65 µM (inactive)
- GI50 (OVCAR-3): 23.5 µM (inactive)
- GI50 (SNB-75): 36.3 µM (inactive)
- GI50 (OVCAR-5): > 100 µM (inactive)
- GI50 (SF-268): 39.1 µM (inactive)
- GI50 (MCF7): 41.5 µM (inactive)

SMILES: COc1ccc(-c2c(N)n(-c3nc4ccccc4s3)c(=O)c3cc([N+](=O)[O-])ccc23)cc1
- GI50 (UO-31): 16.3 µM (inactive)
- GI50 (786-0): 4.29 µM (inactive)
- GI50 (SW-620): 19.7 µM (inactive)
- GI50 (NCI/ADR-RES): 17 µM (inactive)
- GI50 (HOP-92): 16.4 µM (inactive)
- GI50 (SF-539): 5.83 µM (inactive)
- GI50 (K562): 23.2 µM (inactive)
- GI50 (HCT-15): 41.8 µM
- GI50 (MDA-MB-231): 16.9 µM (inactive)
- GI50 (PC-3): 30.8 µM (inactive)
- GI50 (CAKI-1): 21.3 µM (inactive)
- GI50 (OVCAR-3): 17 µM (inactive)
- GI50 (SNB-75): 8.43 µM (inactive)
- GI50 (OVCAR-5): 22.2 µM (inactive)
- GI50 (SF-268): 17.2 µM (inactive)
- GI50 (MCF7): 44.8 µM (inactive)
- GI50 (BT-549): 89.9 µM (inactive)

SMILES: C=C(C)[C@@]1(O)CCCC[C@@H]1CC(Sc1ccccc1)Sc1ccccc1
- GI50 (UO-31): 16 µM (inactive)
- GI50 (786-0): 17.8 µM (inactive)
- GI50 (DU-145): 15.7 µM (inactive)
- GI50 (NCI/ADR-RES): 16.3 µM (inactive)
- GI50 (T47D): 12.4 µM (inactive)
- GI50 (HOP-92): 4.3 µM (inactive)
- GI50 (HCC 2998): 16.5 µM (inactive)
- GI50 (K562): 14.2 µM (inactive)
- GI50 (HCT-15): 15 µM
- GI50 (MDA-MB-231): 17.1 µM (inactive)
- GI50 (PC-3): 16.3 µM (inactive)
- GI50 (CAKI-1): 14.9 µM (inactive)
- GI50 (SNB-75): 16 µM (inactive)
- GI50 (OVCAR-5): 16.3 µM (inactive)
- GI50 (SF-268): 15.7 µM (inactive)
- GI50 (MCF7): 24.7 µM (inactive)

SMILES: Cc1cn(C2CC(N/C(=N/C#N)NCC3OC(n4cnc5c(N)ncnc54)CC3O)C(CO)O2)c(=O)[nH]c1=O (stereo not drawn)
- GI50 (UO-31): > 100 µM (inactive)
- GI50 (786-0): > 100 µM (inactive)
- GI50 (DU-145): > 100 µM (inactive)
- GI50 (SW-620): > 100 µM (inactive)
- GI50 (NCI/ADR-RES): > 100 µM (inactive)
- GI50 (T47D): > 100 µM (inactive)
- GI50 (HOP-92): > 100 µM (inactive)
- GI50 (HCC 2998): > 100 µM (inactive)
- GI50 (SF-539): > 100 µM (inactive)
- GI50 (K562): > 100 µM (inactive)
- GI50 (HCT-15): > 100 µM
- GI50 (MDA-MB-231): > 100 µM (inactive)
- GI50 (PC-3): > 100 µM (inactive)
- GI50 (CAKI-1): > 100 µM (inactive)
- GI50 (OVCAR-3): > 100 µM (inactive)
- GI50 (SNB-75): > 100 µM (inactive)
- GI50 (OVCAR-5): > 100 µM (inactive)
- GI50 (SF-268): > 100 µM (inactive)
- GI50 (MCF7): 1.04 µM (active)

SMILES: COC(=O)C1C2CC3C1C3C2C(=O)OC (stereo not drawn)
- GI50 (UO-31): > 100 µM (inactive)
- GI50 (786-0): > 100 µM (inactive)
- GI50 (DU-145): > 100 µM (inactive)
- GI50 (SW-620): > 100 µM (inactive)
- GI50 (NCI/ADR-RES): > 100 µM (inactive)
- GI50 (T47D): > 100 µM (inactive)
- GI50 (HOP-92): > 100 µM (inactive)
- GI50 (HCC 2998): > 100 µM (inactive)
- GI50 (SF-539): > 100 µM (inactive)
- GI50 (K562): > 100 µM (inactive)
- GI50 (HCT-15): > 100 µM
- GI50 (MDA-MB-231): > 100 µM (inactive)
- GI50 (PC-3): > 100 µM (inactive)
- GI50 (CAKI-1): > 100 µM (inactive)
- GI50 (OVCAR-3): > 100 µM (inactive)
- GI50 (SNB-75): > 100 µM (inactive)
- GI50 (OVCAR-5): > 100 µM (inactive)
- GI50 (SF-268): > 100 µM (inactive)
- GI50 (MCF7): > 100 µM (inactive)

Reference: ChEMBL document CHEMBL1201862, “PubChem BioAssay data set” (2004)
